Target: T1, AKD9 alkaline serine protease (Bacillus subtilis, UniProt A0A5Q0V2V1)
T1 construct: native enzyme purified from culture supernatant of isolate D9; single band just below 48 kDa; cloned gene 442 aa, 47,789 Da
Test: casein hydrolysis, A280 of TCA-soluble products
Type: biochemical
Details: 100 µM; 0.1 mM TLCK; casein substrate
From the text: casein hydrolysis, A280 of TCA-soluble products on AKD9 alkaline serine protease

T1 sequence (A0A5Q0V2V1 1-442): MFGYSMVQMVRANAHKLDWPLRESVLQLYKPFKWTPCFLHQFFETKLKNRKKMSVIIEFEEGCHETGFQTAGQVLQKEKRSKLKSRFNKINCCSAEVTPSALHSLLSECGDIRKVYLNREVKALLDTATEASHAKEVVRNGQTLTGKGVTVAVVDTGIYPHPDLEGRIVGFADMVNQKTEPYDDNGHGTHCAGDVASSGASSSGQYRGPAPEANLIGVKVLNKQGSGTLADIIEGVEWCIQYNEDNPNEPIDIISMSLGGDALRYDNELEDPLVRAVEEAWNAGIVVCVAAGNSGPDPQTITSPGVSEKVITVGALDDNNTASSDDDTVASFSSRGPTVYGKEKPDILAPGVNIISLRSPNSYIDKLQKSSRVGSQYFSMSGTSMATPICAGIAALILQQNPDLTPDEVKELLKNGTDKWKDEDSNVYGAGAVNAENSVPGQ

SMILES: Cc1ccc(S(=O)(=O)N[C@@H](CCCCN)C(=O)CCl)cc1 [TLCK]
- Residual activity, U/ml: 31.5 ± 0.4 U/ml

Reference: paper PMC8524146, “In vitro and in silico characterization of alkaline serine protease from Bacillus subtilis D9 recovered from Saudi Arabia” (Heliyon, 2021)
